This is an account of results in patent US10500198B2, “Bis-benzylidine piperidone proteasome inhibitor with anticancer activity” (The Johns Hopkins University, priority 2013, dated 2019).

The structures appear in SMILES notation. Entries after “also recorded” stand apart in the source; their conditions may differ.

The target of one experiment is T1, RPN13 (Homo sapiens, UniProt Q16186).
T1 construct: endogenous in cells; host or cells: HeLa, HS578T cell lysate
The experiment in a line: Biotin labeling assay. Particulars: cell lysate or purified RP, streptavidin-peroxidase blot. The format is binding. The procedure: FIGS. 10 A-10E show a series of graphs and immunoblots showing the effects of several compounds on cell viability and proteasome activity. […] 10B and 10C show immunoblots of the proteasome activity of cell lines treated with the indicated compounds. […] IC50 values were determined in triplicate. In FIG. 10B, HeLa cells were treated for 12 hr and the cell lysate was subjected to immunoblot analysis with anti-Ubiquitin antibody. In FIG. 10C, SiHa cells were treated with the indicated compounds for 12 hr and the lysate subjected to Western blot analysis with anti-Ubiquitin antibody. HeLa cell lysate was treated with RA190B, subjected to SDS-PAGE, and probed with streptavidin-peroxidase following protein transfer to a polyvinylidene difluoride (PVDF) membrane. The streptavidin-peroxidase bound to biotinylated cellular proteins, but a striking new band at 42 kDa appeared in RA190B-treated samples (FIG. 2A). […] IC50 values were determined in triplicate.
To eliminate the possibility that another RP component was required for RA190B interaction, RPN13 or an irrelevant protein (L2) was overexpressed in bacteria. Cell lysate harvested from bacteria either with or without […] induction of ectopic protein expression was labeled with RA190B and probed by blotting with streptavidin-peroxidase. RA190B reacted strongly with a 42 kDa protein only in lysates of bacteria expressing RPN13 (FIG. 2D). […] 800 μL fractions were collected and alternate fractions (1,3,5,7,9,11,13,15,17) were analyzed for the presence of proteasomal proteins (RPN13, RPN2, RPN1 and UCH37) by Western blot analysis.
Human cells (5×10^6 HeLa or 293TT cells) were lysed using MPER (Pierce) lysis buffer (500 μL). RPN13 or HPV L2 transformed bacterial cells (500 μL of culture) were centrifuged to harvest the cells which were re-suspended in 500 μL BPER (Pierce). Cell lysates were centrifuged at 10,000 rpm briefly (2 min) at 4° C. to remove cell debris. Lysate supernatant (200 μL) was pre cleared with streptavidin dyna beads (20 μL) for 1 h at 4° C. to remove non-specific biotin binding and incubated with compounds (indicated concentrations or 20 μM) at 4° C. for 1 hr. An equal amount of each sample (20 μL of lysate) was mixed with an equal volume of Laemmli sample buffer (20 μL) (BioRad) and was boiled for 5 min. […] (24 V). Membrane was blocked with 5% BSA in PBST for 1 hr at room temperature and washed for 20 min (3×PBST). Then the membrane was probed with HRP-streptavidin (1:10,000 in PBST) for 1 hr at room temperature and washed for 30 min (3×PBST) and developed using HyGLO chemiluminescent detection reagent (Denville) for biotin recognition. For the purified enzyme assay, 19S purified proteasome (R&D Systems, Cat. No. E-366) (500 ng) in 19S buffer (20 mM HEPES, 20 mM NaCl, 1 mM DTT, 15% Glycerol) was incubated with compounds (20 μM) for 1 hr at room temperature and mixed with an equal volume of Laemmli sample buffer (20 μL) (BioRad) and was boiled for 5 min. Each sample was loaded onto gel and followed the western blot protocol mentioned above.
Purified 19S proteasome (500 ng) was incubated with corresponding compounds for 30 min and subjected to immunoblot and probed with HRP-conjugated streptavidin. In FIG. 23, the single band at 42 KDa indicates Rpn13 binding to 195. RA183B (20 μM) is used as positive control for Rpn13 binding. Competition experiments were done with RA183 (100 μM) and RA195 (100 μM) along with RA195B (20 μM).

The target of another experiment is T2, RPN13 Pru domain (Homo sapiens, UniProt Q16186).
T2 construct: RPN13 (1-150), which includes its Pru domain; made in house
The experiment in a line: NMR and LC-MS of RA190-exposed RPN13. In kind it is binding. The conditions noted are these: site-directed mutagenesis, NMR. The procedure: By contrast, RPN13 Pru C^60,80,121.
NMR spectra were acquired at 25° C. or 10° C. on Bruker NMR spectrometers operating at 850 or 900 MHz and equipped with cryogenically cooled probes. Processing was performed in NMRPipe^13 and the resulting spectra visualized with XEASY.^3 Protein concentrations were calculated by extinction coefficients based on amino acid composition and absorbance at 280 nm for protein dissolved in 6 M guanidine-HCl.
RPN13 Pru domain and RA190-exposed RPN13, RPN13 Pru domain, RPN13 Pru C60,80,121A, and RPN13 Pru C88A at protein concentrations of 1 μg/μL were treated with formic acid and injected onto a Nano2D-LC HPLC system (Eksigent, Dublin, Calif.) equipped with an Agilent Zorbax 300SB C8 column (3 mm ID, 10 cm length, 3.5 μm particle size). The samples were subjected to 10 min of incubation in 98% H2O:2% CH3CN, a 20 min linear gradient at 10 μL/min flow rate to 75% H2O:25% CH3CN followed by a 12 min linear gradient to 5% H2O:95% CH3CN and then a 2 min hold. Analysis was conducted by positive ionization electrospray with an LTQ-Orbitrap Velos instrument (Thermo Scientific, Waltham, Mass.) and adducts were quantified utilizing the Orbitrap detector with a resolution of 100,000 at a scan range of 400-2000 m/z.

In experiment [1] the test system is NCI-H929-GFP-luc human tumor cells. The experiment in a line: NCI-H929 MM tumor in NOG mice. In kind it is in vivo, mouse. The conditions noted are these: 20 mg/kg/day i.p., 7 days. The text has this:
Prior to and at the end of the treatment, mice were imaged for bioluminescence. […] The mice were imaged before and at the end of the treatment for bioluminescence levels. We have previously described the susceptibility of human ovarian cancer lines to proteasome inhibition. […] Prior to and 7 and 14 days after initiation of treatment, the mice were imaged for luciferase activity.
For TC-1 tumors, C57BL/6 mice (8/group) were challenged subcutaneously with 5×10^4 TC-1 cells/mice. Tumors grew for approximately 7 days until they were palpable, whereupon the mice were weighed and treatment was initiated. Tumor size was measured with a digital caliper and calculated based on the formula: [largest diameter×(perpendicular diameter)2]π/6. Nude mice (8 per group) were inoculated with 1×10^6 EΩ-Luciferase cells i.p. in 100 μL PBS. At day 3 mice were imaged for basal level luminescence expression. […] NOG mice (5 per group) were inoculated with 1×10^6 NCI-H929-GFP-Luc cells i.v., and after 4 weeks, mice were imaged for their luciferase activity and divided into two groups.

The next experiment concerns HeLa cells. The experiment in a line: Cell surface HSP90 staining. In kind it is cell-based, human. Particulars: 24 hr. The text has this:
Cell surface HSP90 was detected by staining with purified anti-HSP90 mAb (Stressgen), followed by PE-conjugated anti-mouse IgG1. The data were acquired with a FACSCalibur and analyzed using CellQuest software.

For the next experiment, the system named is U266 cells. The experiment in a line: Active caspase-3 by FACS. Particulars: 0.5 μM, 8 h. The format is cell-based. Here is the method: U266 cells were treated with RA195 (0.5 μM) and Bz(0.5 μM) for the period of 8 h. Cells were stained for PE-conjugated Caspase-3 antibody and measured active caspase-3 by FACS.
(In flow cytometry, cells or beads pass a laser one at a time.)

T1 sequence (Q16186 whole entry): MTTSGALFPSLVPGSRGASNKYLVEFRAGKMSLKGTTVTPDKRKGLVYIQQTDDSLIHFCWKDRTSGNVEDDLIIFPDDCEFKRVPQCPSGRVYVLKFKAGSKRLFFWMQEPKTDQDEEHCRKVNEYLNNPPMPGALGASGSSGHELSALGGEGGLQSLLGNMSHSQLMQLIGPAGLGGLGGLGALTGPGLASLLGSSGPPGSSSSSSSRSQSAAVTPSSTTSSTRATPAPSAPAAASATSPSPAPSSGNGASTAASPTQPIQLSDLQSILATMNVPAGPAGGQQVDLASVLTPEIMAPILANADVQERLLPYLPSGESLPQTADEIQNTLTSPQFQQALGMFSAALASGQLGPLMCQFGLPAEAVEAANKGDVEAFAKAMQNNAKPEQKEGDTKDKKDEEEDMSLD
T2 sequence (Q16186 1-150): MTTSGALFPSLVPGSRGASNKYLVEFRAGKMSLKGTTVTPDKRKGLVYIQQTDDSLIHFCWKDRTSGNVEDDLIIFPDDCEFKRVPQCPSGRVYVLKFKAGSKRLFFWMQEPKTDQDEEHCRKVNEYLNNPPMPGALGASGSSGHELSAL

As for `Cl.N[C@@H](Cc1ccccc1)C(=O)N1CC(=Cc2ccc(Cl)c(Cl)c2)C(=O)C(=Cc2ccc(Cl)c(Cl)c2)C1` [RA190, 3,5-bis(3,4-dichlorobenzylidene)-1-(S-2-amino-3-phenyl)-piperidin-4-one-HCl salt], the “labeling of / competition for RPN13 (42 kDa band)” value at RPN13 was “competitive; also recorded: covalently binds directly to RPN13”. For the same compound, the “site of RA190 ligation” value on RPN13 Pru domain is “ligates to RPN13 C88”. For the same compound, the “antitumor activity (bioluminescence)” value in experiment [1] was “potent antitumor activity”. For the same compound, in the experiment on HeLa cells, the “cells with cell-surface HSP90” value is 54.2%.
Consider `Cl.NCCCC[C@H](NC(=O)OCC1c2ccccc2-c2ccccc21)C(=O)N1C/C(=C\c2ccc(Cl)c(Cl)c2)C(=O)/C(=C/c2ccc(Cl)c(Cl)c2)C1` [RA195], for which the “labeling of / competition for RPN13 (42 kDa band)” value at RPN13 is recorded as “binds covalently to RPN13”. Moreover, in the experiment with U266 cells, the “active caspase-3” value is listed as “caused an increase in caspase-3 expression”.
